Some results are limits rather than exact numbers.

The melting point is the temperature of the solid-liquid transition.

`O=C1NC(=O)C(N2C(=O)c3ccccc3C2=O)CC1c1ccccc1` (centres undefined) had a melting point of 228 to 231 °C.

On to `O=C(Nc1ccc(C(F)(F)F)cc1)NC1CCS(=O)(=O)CC1`, for which the melting point fell in the range of 196 to 198 °C.

For the compound `CC(=O)N1N=C(c2ccc([N+](=O)[O-])c(C)c2)c2cc3c(cc2C=C1C)OCO3`, the melting point is 115 to 116 °C. `NC(=O)n1nc(-c2ccco2)cc1N` returned a melting point of 145 °C.

Compound `CC(C)(C)C(=O)CNC(=O)c1nn(-c2ccc(F)cc2F)c2c1C1CCC2C1` (centres undefined) yielded a melting point of 42 to 43 °C. The compound `Cc1c(C)c2c(c(C)c1NC(=O)NC(C)(C)C)C(c1ccc(C(C)C)cc1)CO2` (centres undefined) registered a melting point of 201 to 202 °C. For `CC(C)Nc1cccnc1N1CCN(C(=O)c2ccc(C(=O)NCCCN3CCOCC3)cc2)CC1`, the melting point is 103 °C. Turning to `CC(C)(C)OC(=O)Nc1ccc(Nc2nc(-c3ccc4cc(OCc5ccccc5)ccc4c3)cc3ccnn23)cc1`, the melting point is 189 °C. For the compound `CCCCCCC1OC1(C(=O)OCC)C(=O)OCC` (centres undefined), the melting point is 58 to 60 °C. Turning to `O=C(O)CN1CC2(CCCCC2)CC1=O`, the melting point lay in the range of 122 to 124 °C. In turn, `CC(C)(C)OC(=O)NCCCCNc1c([N+](=O)[O-])cnc2cccnc12` came in with a melting point of 137 to 138 °C. `CC(C)C1(C)C(=O)N=C2c3ncc(C4OCCO4)cc3C(=O)N21` (centres undefined) registered a melting point of 146 to 148 °C. Turning to `COc1cc(Oc2cccc(C(F)(F)F)c2)nc(C(=O)NC(OC)C(F)(F)F)c1` (centres undefined), the melting point lay within 102 to 104 °C. To `FC(F)(F)Oc1ccc(C=Cc2nc(CNc3ccc(CCCCn4ccnn4)cc3)co2)cc1` belongs 103 to 105 °C.

Compound `O=C(O)c1cc(OCCCCCCCCCCCCOc2ccccc2)ccc1OCc1ccccc1` yielded a melting point of 85 to 87 °C. On to `CCc1nc2c(N)nc3cccnc3c2n1CC1(O)CCN(C(=O)N2CCOCC2)CC1`, for which the melting point is above 255 °C. Take `CCN1C(=O)c2cnc(-c3ccccc3)nc2N(C(=O)CCl)c2ccccc21`: the melting point lay within 147 to 148 °C.

Consider `CCOCCNC(=O)c1ccc(CN2C(=O)C3(COc4cc5c(cc43)CCO5)c3ccccc32)cc1` (centres undefined), for which the melting point fell in the range of 84 to 85 °C. For `COC(=O)N(C)c1cccc(-c2ccc3nnc(C)n3n2)c1`, the melting point fell in the range of 164 to 166 °C. To `CN1C2CCC1CC(c1ccc3ccccc3c1)C2` (centres undefined) belongs 77 to 79 °C; to `COc1cc(C2C3=C(COC3=O)Nc3ccc4cc[nH]c4c32)cc(OC)c1OC` (centres undefined), 299 to 301 °C; to `CC(C)(COc1ccc(Cl)cc1)C(O)C(Oc1ccc(Cl)cc1)n1ccnc1` (centres undefined), 142 to 144 °C.

`COC[C@H]1CN(c2ccc(CCC[C@@H](C)O)cc2)C(=O)O1`: the melting point is 65 °C. `CCCC(=O)NC1=CC(=O)c2ccc(C=O)nc2C1=O` came in with a melting point of 208 to 210 °C. Take `CCOC(=O)c1ccc(NC)c(C(O)c2ccccc2)c1` (centres undefined): the melting point was in the range of 132 to 135 °C. In turn, `NC(=O)c1cc(N2CCN(Cc3ccc(F)cc3)C2=O)n[nH]1` came in with a melting point of 256 to 258 °C. To `OCc1ccc(Cl)cc1Cc1ccccc1` belongs 46.5 to 49 °C; to `COC(=O)C(=CNC1CC1)C(=O)c1cc(F)c(Cl)cc1Cl`, 150 to 151 °C; to `COc1cc(C=O)c2c(c1OC)OCC=C2`, 82 to 82.5 °C. The value for `COc1cc(CC(=O)Nc2ccc(C3CN(C(C)=O)CC3C(=O)O)cc2)ccc1NC(=O)Nc1ccccc1C` (centres undefined) was 242 °C. To `CCC(O)c1cc2c(=O)n(NS(C)(=O)=O)c(=O)[nH]c2cc1C(F)(F)F` (centres undefined) belongs 219 to 222 °C; to `COc1ccc(-c2cnc(N)c(Sc3ccc(C)cc3)n2)cc1`, 107 to 110 °C. `CNCc1ccc(C2CCN(c3cc4c(cc3F)c(=O)c(C(=O)O)cn4C3CC3)C2)cc1` (centres undefined) came in with a melting point of 235 to 237 °C.

In turn, `CCOc1cc(CCCOc2c(CC(=O)O)cccc2OC)n(Cc2ccc(Cl)cc2Cl)n1` showed a melting point of 109 to 110 °C.

The values above are taken from a melting point compilation (Tetko et al.; mined from patent text by program, amines drawn as free bases though some values may be those of a salt).
